Test [1] has as its system ALOMY. Nature of the test: greenhouse post-emergence herbicidal test. The following applies: for herbicidal activity: ALOMY, scale 0 to 100; for control of ALOMY: 500 g/ha. The class given is in vivo, Alopecurus myosuroides. The source says:
(§1) The seeds of the test plants were sown separately for each species. For the post-emergence treatment, the test plants were first grown to a height of 3 to 15 cm, depending on the plant habit, and only then treated with the active ingredients which had been suspended or emulsified in water. For this purpose, the test plants were either sown directly and grown in the same containers, or they were first grown separately as seedlings and transplanted into the test containers a few days prior to treatment. Depending on the species, the plants were kept at 10-25° C. or 20-35° C., respectively. The test period extended over 2 to 4 weeks. During this time, the plants were tended, and their response to the individual treatments was evaluated. Evaluation was carried out using a scale from 0 to 100. 100 means no emergence of the plants, or complete destruction of at least the aerial moieties, and 0 means no damage, or normal course of growth. A good herbicidal activity is given at values of at least 70 and a very good herbicidal activity is given at values of at least 85. The plants used in the greenhouse experiments were of the following species: [table]

The next test has as its system AVEFA. Nature of the test: greenhouse post-emergence herbicidal test. The class given is in vivo, Avena fatua. The following applies: for control of AVEFA: 500 g/ha; for herbicidal activity: AVEFA, scale 0 to 100.
Description: as §1

Test [2] deals with ECHCG. The test is described as follows: greenhouse post-emergence herbicidal test. The following applies: scale 0 to 100. Format: in vivo, Echinocloa crus-galli.
Description: as §1

The test system of the next test is APESV. The test is described as follows: greenhouse pre-emergence herbicidal test. Format: in vivo, Apera spica-venti. The following applies: for herbicidal activity: APESV, scale 0 to 100; for control of APESV: 125 g/ha. The source says:
(§2) The seeds of the test plants were sown separately for each species. For the pre-emergence treatment, the active ingredients, which had been suspended or emulsified in water, were applied directly after sowing by means of finely distributing nozzles. The containers were irrigated gently to promote germination and growth and subsequently covered with transparent plastic hoods until the plants had rooted. This cover caused uniform germination of the test plants, unless this had been impaired by the active ingredients. Depending on the species, the plants were kept at 10-25° C. or 20-35° C., respectively. The test period extended over 2 to 4 weeks. During this time, the plants were tended, and their response to the individual treatments was evaluated. Evaluation was carried out using a scale from 0 to 100. 100 means no emergence of the plants, or complete destruction of at least the aerial moieties, and 0 means no damage, or normal course of growth. A good herbicidal activity is given at values of at least 70 and a very good herbicidal activity is given at values of at least 85. The plants used in the greenhouse experiments were of the following species: [table]

For test [3], the system named is ECHCG. The test is described as follows: greenhouse pre-emergence herbicidal test. The class given is in vivo, Echinocloa crus-galli. To be noted: scale 0 to 100.
Description: as §2

The test system of another test is SETVI. Nature of the test: greenhouse post-emergence herbicidal test. To be noted: 1000 g/ha, scale 0 to 100. The class given is in vivo, Setaria viridis.
Description: as §1

Test [4] deals with POAAN. Nature of the test: greenhouse post-emergence herbicidal test. The class given is in vivo, Poa annua. To be noted: 2000 g/ha, scale 0 to 100.
Description: as §1

For the next test, the system named is MATIN. The test is described as follows: greenhouse post-emergence herbicidal test. The class given is in vivo, Matricaria inodora. The following applies: 2000 g/ha, scale 0 to 100.
Description: as §1

In test [5] the test system is POAAN. The test is described as follows: greenhouse pre-emergence herbicidal test. Format: in vivo, Poa annua. To be noted: 2000 g/ha, scale 0 to 100.
Description: as §2

Test [6] has as its system AGSST. Nature of the test: greenhouse post-emergence herbicidal test. Format: in vivo, Agrostis stolonifera. The following applies: 2000 g/ha, scale 0 to 100.
Description: as §1

Test [7] concerns AGSST. Nature of the test: greenhouse pre-emergence herbicidal test. Format: in vivo, Agrostis stolonifera. The following applies: 2000 g/ha, scale 0 to 100.
Description: as §2

The test system of test [8] is ALOMY. Nature of the test: greenhouse pre-emergence herbicidal test. Format: in vivo, Alopecurus myosuroides. To be noted: 125 g/ha.
Description: as §2

In another test the test system is AMARE. Nature of the test: greenhouse post-emergence herbicidal test. The class given is in vivo, Amaranthus retroflexus. The following applies: for control of AMARE: 500 g/ha; for herbicidal activity: 1000 g/ha, AMARE, scale 0 to 100.
Description: as §1

The results in this text go back to patent US20200146289A1, “Herbicidal pyrimidine compounds” (BASF SE, priority 2017, published 2020).

Each structure is given as a SMILES string.

With `COC(=O)c1nc(C2CC2)ncc1-c1cc(C(F)F)ccc1Cl` [Ex.7], the herbicidal activity result in the test on ALOMY [1] (1000 g/ha), in the test with AVEFA (1000 g/ha), in the test on ECHCG [2] (1000 g/ha), in the test on APESV (1000 g/ha) and in the test with ECHCG [3] (1000 g/ha) was “very good (a very good herbicidal activity is given at values of at least 85)” throughout. Also, in the test on AVEFA, the “control of AVEFA” value is 90%.

As for `Cc1ccc(C(F)(F)F)cc1-c1cnc(C2CC2)nc1C(=O)O` [Ex.14], the herbicidal activity result with ALOMY [1] (2000 g/ha), with AVEFA (2000 g/ha), in the test with ECHCG [2] (2000 g/ha), with APESV (2000 g/ha) and with ECHCG [3] (2000 g/ha) was “very good (a very good herbicidal activity is given at values of at least 85)” throughout.

With `O=C(O)c1nc(C2CC2)ncc1-c1cc(C(F)(F)F)ccc1Br` [Ex.6], the herbicidal activity entry in the test on ALOMY [1] (1000 g/ha), in the test on ECHCG [2] (1000 g/ha), with SETVI, in the test with APESV (1000 g/ha) and with ECHCG [3] (1000 g/ha) was “very good (a very good herbicidal activity is given at values of at least 85)” each time.

With `O=C(O)c1nc(C2CC2)ncc1-c1cc(C(F)(F)F)cc(Br)c1Br` [Ex.9], the herbicidal activity entry in the test with POAAN [4] is reported as “very good (a very good herbicidal activity is given at values of at least 85)”; in the test on MATIN, “very good (a very good herbicidal activity is given at values of at least 85)”; in the test on APESV (2000 g/ha), “good (A good herbicidal activity is given at values of at least 70)”; with POAAN [5], “very good (a very good herbicidal activity is given at values of at least 85)”.

In the case of `COC(=O)c1nc(C2CC2)ncc1-c1cc(C(F)(F)F)ccc1Br` [Ex.5], the herbicidal activity result in the test on AGSST [6] is recorded as “very good (a very good herbicidal activity is given at values of at least 85)”; with POAAN [4], “very good (a very good herbicidal activity is given at values of at least 85)”; with AGSST [7], “good (A good herbicidal activity is given at values of at least 70)”; in the test with POAAN [5] it was “very good (a very good herbicidal activity is given at values of at least 85)”.

In the case of `COC(=O)c1nc(C2CC2)ncc1-c1cc(C(F)(F)F)ccc1Cl` [Ex.3, Methyl 5-[2-chloro-5-(trifluoromethyl)phenyl]-2-cyclopropyl-pyrimidine-4-carboxylate], the herbicidal activity result in the test with ALOMY [1] (1000 g/ha), in the test on AVEFA (1000 g/ha), with ECHCG [2] (1000 g/ha), in the test with APESV (1000 g/ha) and with ECHCG [3] (1000 g/ha) was “very good (a very good herbicidal activity is given at values of at least 85)” in each case. The “control of AVEFA” value in the test with AVEFA was 85%. In the test on APESV, the “control of APESV” value is on record as 90%. In addition, the “control of ALOMY” value in the test with ALOMY [8] is 85%.

Take `O=C(O)c1nc(C2CC2)ncc1-c1cc(OC(F)(F)F)ccc1F` [Ex.12]: the herbicidal activity result in the test on ALOMY [1] (2000 g/ha) was “very good (a very good herbicidal activity is given at values of at least 85)”; with AVEFA (2000 g/ha), “good (A good herbicidal activity is given at values of at least 70)”; in the test on APESV (2000 g/ha), “very good (a very good herbicidal activity is given at values of at least 85)”.

For `O=C(O)c1nc(C2CC2)ncc1-c1cc(C(F)F)ccc1Cl` [Ex.8], the “control of ALOMY” value in the test on ALOMY [1] is 90%. For the same compound, the herbicidal activity entry with ALOMY [1] (1000 g/ha), in the test on AMARE, in the test on SETVI, in the test with APESV (1000 g/ha) and in the test on ECHCG [3] (1000 g/ha) was “very good (a very good herbicidal activity is given at values of at least 85)” throughout. Also, the “control of AVEFA” value in the test on AVEFA is 90%. The “control of AMARE” value in the test on AMARE came out at 100%.

As for `COC(=O)c1nc(C2CC2)ncc1-c1cc(OC(F)(F)F)ccc1F` [Ex.11], the herbicidal activity result in the test on ALOMY [1] (2000 g/ha), with AVEFA (2000 g/ha), with APESV (2000 g/ha) and in the test on ECHCG [3] (2000 g/ha) was “very good (a very good herbicidal activity is given at values of at least 85)” throughout.

On to `COC(=O)c1nc(C2CC2)ncc1-c1cc(C(F)(F)F)ccc1C` [Ex.13], for which the herbicidal activity result in the test on ALOMY [1] (2000 g/ha), in the test with APESV (2000 g/ha) and in the test with ECHCG [3] (2000 g/ha) was “very good (a very good herbicidal activity is given at values of at least 85)” in each case.

On to `O=C(O)c1nc(C2CC2)ncc1-c1cc(C(F)(F)F)ccc1Cl` [Ex.4, 5-[2-chloro-5-(trifluoromethyl)phenyl]-2-cyclopropyl-pyrimidine-4-carboxylic acid], for which the “control of ALOMY” value in the test on ALOMY [1] and in the test with ALOMY [8] was 90% each time. Moreover, the herbicidal activity entry in the test with ALOMY [1] (1000 g/ha), with ECHCG [2] (1000 g/ha), in the test with AMARE, with APESV (1000 g/ha) and with ECHCG [3] (1000 g/ha) was “very good (a very good herbicidal activity is given at values of at least 85)” throughout. The “control of AVEFA” value in the test with AVEFA was determined as 90%. Moreover, in the test on AMARE, the “control of AMARE” value is listed as 80%. Also, the “control of APESV” value in the test on APESV was 100%.
